Test results taken from US20050074744A1, “Assays for evaluating anti-osteoarthritic activity” (priority 2003, published 2005).

Tests used:
[1] = tested on: articular cartilage grafts (ACGs); experiment: Histological assessment (toluidine blue) of proteoglycan and collagen levels in ACGs; format: cell-based, human; conditions: ACG; for presence or loss of proteoglycans, toluidine blue stain: 24 hours
Description: (§1) ACGs were constructed from the human chondrocyte strain Cc 05912 1°, which was isolated and propagated in Dubelcco's-Modified Eagle's Medium with. 10% fetal bovine serum (DMEM/10% FBS). After propagation, the cells were used to assemble ACGs on type II collagen coated Millipore Millicell-CM filters at a density of 2 million cells/cm^2, using the procedure described in U.S. Pat. No. 5,326,357. The ACGs were grown in defined ACG media (DMEM/2×ITS×(Invitrogen # 51500-056), 2% Human Serum Albumin) supplemented with 5 ng/ml TGF-β2 and 100 μg/ml ascorbic acid. After three weeks in culture, the levels of aggrecan and collagen type II expression in the ACGs peaked and leveled off.
After three weeks, the IL-1β (R&D Systems # 201-LB) and DBH incubations began. All of the preincubations and subsequent incubations were performed in DMEM. First all of the ACGs were washed twice with DMEM. Sample 1 ACGs were harvested for histology and gene expression analysis at the onset of the experiment. Next, 2 hour preincubations were performed on four groups, in triplicate for both histology and gene expression analysis. Sample 2 ACGs received 250 μl of DMEM to the inside and outside of the ACG. Sample 3 ACGs received the same. Sample 4 ACGs received 5 μm DBH in the same volumes as the other groups to the inside and outside of the Millicell filter containing the ACGs. Sample 5 ACGs received DMSO in the same volume as the DBH group as a vehicle control. The ACGs were then incubated for 2 hours. After the 2 hour preincubation with DBH, IL-1β incubation was added. Sample 2 received another 250 μl of DMEM in addition to the 250 μl that was added at the preincubation step. Sample 3 received 250 μl, inside and out, of DMEM with IL-1β at a final concentration of 2 ng/ml. Sample 4 also received IL-1β with the addition of more DBH to compensate for the volume change of DMEM to keep the concentration of 5 μm. Sample 5 also received IL-1β with an adjustment of the DMSO levels to compensate for the volume change of the DMEM.
After incubation with-lL-1β for 24 hours, a group of the ACGs from Example 2 were fixed in 10% neutral buffered formalin and embedded in paraffin. Sections were cut and stained with toluidine blue to assess the presence or loss of proteoglycans in the ACGs.

stromelysin RNA = experiment: Quantitative real-time RT-PCR of stromelysin RNA in IL-1β-treated ACGs; format: cell-based, human; conditions: ACG, 24 hours
Description: as §1, with “off. […]” for “off.”
(§2) After incubation with IL-1β for 24 hours, a group of the ACGs from Example 2 were harvested for quantitative real-time RT-PCR by snap freezing them in LN2. For quantitative real-time RT-PCR total RNA was isolated from the ACGs with TRIzol™ Reagent (Invitrogen # 15596-026) with subsequent cleanup using the Qiagen Rneasy™ Mini Kit (Qiagen # 74104). Contaminating DNA was removed from total RNA samples using the Ambion DNA-free kit (Ambion # 1906). cDNA synthesis was performed on 1 […] of each sample using the Amersham Ready-To-Go You-Prime First-Strand Beads™ (Amersham # 27-9264-01) primed with oligo dT. Reverse transcriptase activity was measured using the PicoGreen™ dsDNA quantitation Kit (Molecular Probes # P-7589). […]

[2] = tested on: chondrocyte monolayer cultures; conditions: U.S. Pat. No. 5,591,740; cited from earlier work
aggrecanase 1 RNA = experiment: Quantitative real-time RT-PCR of aggrecanase 1 RNA in IL-1β-treated ACGs; format: cell-based, human; conditions: ACG, 24 hours
Description: as §1, with “off. […]” for “off.”
as §2

collagenase 1 RNA = experiment: Quantitative real-time RT-PCR of collagenase 1 RNA in IL-1β-treated ACGs; format: cell-based, human; conditions: ACG, 24 hours
Description: as §1, with “off. […]” for “off.”
as §2

[3] = tested on: Hartley guinea pig model of osteoarthritis; conditions: U.S. Pat. No. 5,591,740; cited from earlier work
aggrecanase 2 RNA = experiment: Quantitative real-time RT-PCR of aggrecanase 2 RNA in IL-1β-treated ACGs; format: cell-based, human; conditions: ACG, 24 hours
Description: as §1, with “off. […]” for “off.”
as §2

collagenase 3 RNA = experiment: Quantitative real-time RT-PCR of collagenase 3 RNA in IL-1β-treated ACGs; format: cell-based, human; conditions: ACG, 24 hours
Description: as §1, with “off. […]” for “off.”
as §2

[4] = 5 μm DBH (2 hour preincubation) + IL-1β 2 ng/ml

Molecule	presence or loss of proteoglycans, toluidine blue stain ([1]; IL-1β 2 ng/ml and 5 μm DBH)	loss of proteoglycans and collagen, histological staining ([1]; IL-1β and DBH)	% reduction of IL-1β-induced gene expression with DBH, stromelysin (stromelysin RNA; [4])	IL-1 induced degradation of matrix proteins [2]	% reduction of IL-1β-induced gene expression with DBH, aggrecanase 1 (aggrecanase 1 RNA; [4])	% reduction of IL-1β-induced gene expression with DBH, collagenase 1 (collagenase 1 RNA; [4])	preexisting cartilage damage [3]	% reduction of IL-1β-induced gene expression with DBH, aggrecanase 2 (aggrecanase 2 RNA; [4])	% reduction of IL-1β-induced gene expression with DBH, collagenase 3 (collagenase 3 RNA; [4])	presence or loss of proteoglycans, toluidine blue stain ([1]; IL-1β 2 ng/ml alone)	loss of proteoglycans and collagen, histological staining ([1]; IL-1β alone)	Fold Induction by IL-1β, stromelysin (stromelysin RNA; IL-1β 2 ng/ml, RNA by Q RT-PCR)	Fold Induction by IL-1β, aggrecanase 1 (aggrecanase 1 RNA; IL-1β 2 ng/ml, RNA by Q RT-PCR)	Fold Induction by IL-1β, collagenase 1 (collagenase 1 RNA; IL-1β 2 ng/ml, RNA by Q RT-PCR)	Fold Induction by IL-1β, aggrecanase 2 (aggrecanase 2 RNA; IL-1β 2 ng/ml, RNA by Q RT-PCR)	Fold Induction by IL-1β, collagenase 3 (collagenase 3 RNA; IL-1β 2 ng/ml, RNA by Q RT-PCR)
NC1=N/C(=C2/CCNC(=O)c3[nH]ccc32)C(=O)N1 [DBH, debromohymenialdesine]	decreased loss of proteoglycans	reduces the loss of proteoglycans and collagen	57%	inhibits IL-1 induced degradation of matrix proteins	65%	66%	reduces preexisting cartilage damage	56%	55%	–	–	–	–	–	–	–
IL-1β: inflammatory cytokine (R&D Systems # 201-LB) used to induce osteoarthritic cartilage damage in ACGs	–	–	–	–	–	–	–	–	–	marked loss of proteoglycans	causes the loss of proteoglycans and collagen	168	4	183	4	17
